Measured values from patent US9381164B2, “Silk nanospheres and microspheres and methods of making same” (TRUSTEES OF TUFTS COLLEGE, priority 2009, dated 2016).
Where a name gives a salt, the structure may show the parent alone. Read-outs that look alike come from different tables or passages of the source.

Legend:
[1] = Cumulative drug release from silk spheres in PBS; assay type: physicochemical; settings: for In vitro drug release: Microspheres, PVA blend film
Experimental: Silk spheres loaded with model drugs as described in Example 5 were lyophilized. 10 mg of lyophilized silk spheres were suspended in 1 ml of PBS buffer, pH 7.4. The samples were incubated at room temperature under slow shaking condition. A cumulative drug release profile at each different time point (1, 4, 8.5, 24, 48, 120, 192, 342 hr) was determined by following the steps of (a) centrifuging the samples at 12,000 rpm for 10 min with a Sigma ISS-113 microcentrifuge (Sigma Chemical Co., St. Louis, Mo.); (b) carefully transferring the supernatants to empty tubes, subjecting the collected supernatants to the absorbance measurement at a wavelength of 555 nm, calculating the amount of model drug based on a standard curve, and comparing the data at the current time point with the original amounted drug loaded in the spheres; (c) suspending the precipitated pellets in 1 ml of PBS buffer; and (d) repeating the steps of (a)-(c) at each time point to obtain a cumulative drug release profile. For each model drug, at least three samples were prepared in order to obtain a standard deviation.

[2] = Drug loading in silk spheres (supernatant absorbance at 555 nm); assay type: physicochemical; settings: drug/silk 1:100; spheres from 1.0% silk/4.0% PVA blend
Experimental: Tetramethylrhodamine conjugated bovine serum albumin (TMR-BSA, M.w.=66,000 Da), tetramethylrhodamine conjugated dextran (TMR-Dextran, M.w.=10,000 Da), and rhodamine B (RhB, M.w.=479 Da) were used as model drugs to study the drug loading in silk nano- and micro spheres. Stock solutions of drugs were prepared with a concentration of 5 mg/ml in PBS buffer, pH 7.4, and stored at −20° C. Certain amount of stock solution of drugs was added to silk fibroin solution, before the silk fibroin solution was prepared into silk nano- and micro spheres, to reach to a drug/silk ratio of 1:100 (weight ratio). After mixing, the drug loaded silk fibroin solution was used to blend with PVA solution following the steps described in the Example 2, without the sonication treatment. A 5 wt % of silk and PVA concentrations and a silk/PVA ratio of 1:4 were used in this example. At this concentration, the silk/PVA film with a silk/PVA ratio of 1/4 can generate silk spheres with narrower size distribution, perhaps because the blend film is easier to dissolve in water forming homogeneous sphere suspension.
To determine the amount of drug loading in silk spheres, the supernatants collected from the centrifugation steps were subjected to absorbance measurement at 555 nm. The amount of drug was calculated based on a standard curve obtained at the same condition. The amount of drug in silk spheres was calculated from the difference between the total amount used and the amount remained in the supernatants. For each drug loading, at least three samples were prepared in order to obtain a standard deviation. The pellets from the last step of centrifugation were suspended in 2 ml of PBS buffer, pH 7.4, and used for the following confocal microscopy and drug release studies in Example 6.

[3] = cited from earlier work
[4] = Microspheres, Vibrational splitting of laminar jet

CCN(CC)c1ccc2c(-c3ccccc3C(=O)O)c3ccc(=[N+](CC)CC)cc-3oc2c1.[Cl-] [RhB, rhodamine B]
In vitro drug release [1]: >4 weeks | initial burst release ([1]; PBS pH 7.4, room temperature): about 1% | loading efficiency [2]: approximately 95%

O=C(O)c1ccccc1O [Salicylic acid]
In vitro drug release [3, 4]: 1 days

CC(C)NCC(O)COc1cccc2ccccc12 (centres unmarked) [propranolol hydrochloride]
In vitro drug release [3, 4]: 20 days

Cn1c(=O)c2[nH]cnc2n(C)c1=O [theophylline]
In vitro drug release ([3]; Layer-by-layer coatings, Coat drug tablet): >0.33 days

Dextran
In vitro drug release [1]: 7 days

IGF-I: insulin like growth factor loaded in silk delivery systems
In vitro drug release [3, 4]: >7 weeks | In vitro drug release ([3]; Porous sponge, Drug encapsulated): >4 weeks

Tetramethylrhodamine conjugated bovine serum albumin [TMR-BSA]
In vitro drug release [1]: >4 weeks | initial burst release ([1]; PBS pH 7.4, room temperature): about 1% | loading efficiency [2]: about 51%

tetramethylrhodamine conjugated dextran [TMR-dextran]
total loading released within 2 weeks ([1]; PBS pH 7.4, room temperature, within 2 weeks): more than 60% | loading efficiency [2]: approximately 1.2%
